Measurements from PubChem BioAssay AID2060496 (Molecular Pharmacology Branch, DTP, NCI, 2025).
pIC50: −log10 of the molar value.

Test system: 276233-004-R-J1-PDC complex spheroid viability
Assay: Anticancer human tumor 276233-004-R-J1-PDC patient-derived colon adenocarcinoma cell line growth inhibition [GQUAD]
Conditions: for pIC50: curve of first compound; for viability, T/C: stronger effect = lower value
Source text: DNA G-quadruplex Stabilizer Agents in Combinations in Complex Spheroids
A high-throughput screen of multi-cell type tumor spheroids was designed to identify active combinations of DNA G-quadruplex stabilizer agents and targeted small molecules. Complex spheroids include a stromal component modeled by human endothelial cells (HUVEC) and fibroblasts modeled by human mesenchymal stem cells (MSCs). The concentration ranges selected for each drug and investigational agent were based upon clinically achievable concentrations if the clinical Cmax of the agent was known.
Compounds. The drugs and investigational agents: pidnarulex (CX-5461; NSC782164), APTO-253 (NSC789042), BRACO-19 (NSC847499), peposertib (NSC802822), ceralasertib (NSC780249), elimusertib (NSC800525), camonsertib (NSC841442), AZD-1390 (NSC803789), olaparib (NSC753686), talazoparib (NSC767125), ART-558 (NSC835418), sotorasib (NSC818433), MRTX-1133 (NSC836407), SN-38 (NSC673596), topotecan (NSC609699), etoposide (NSC141540), doxorubicin (NSC123127), gemcitabine (NSC613327), 5-fluorouracil (NSC19893), paclitaxel (NSC125973), vemurafenib (NSC761431), panobinostat (NSC761190), R-306465 (JNJ-16241199; NSC773264), adavosertib (NSC754352), TP-3654 (NSC805149), carboplatin (NSC241240), KSQ-4279 (NSC840948), and staurosporine (NSC755774) were obtained from the National Cancer Institute (NCI) Developmental Therapeutics Program Chemical Repository (34). The FDA-approved anticancer drug set is available from the NCI Developmental Therapeutics Program. […] The stock solutions were prepared in dimethyl sulfoxide (DMSO, Sigma-Aldrich, St. Louis, MO, cat. D2650) at 800-fold the tested concentration and stored at -70 degrees C prior to their use. All drugs and investigational agents were tested over a range starting from a high concentration at or near the clinical Cmax and decreasing in half-log increments. If the clinical Cmax for an agent had not been determined, the highest concentration tested was 10 microM.
2.3 Cell Culture. All cells were maintained in an incubator at 37 degrees C and 5% CO2 with 95% humidity. The PDC lines were cultured according to standard operating procedures established by the NCI PDMR. All PDCs were thawed and cultured in Matrigel-coated flasks prepared with a working solution of 1X Ham's F-12 nutrient mix, without supplementation (Invitrogen, cat. 11765054), 100 U/mL penicillin-streptomycin (Invitrogen, cat. 15140122), and 2.5% Matrigel (Corning Inc., cat. 354248) for the first three passages. The 857933-349-R-J2-PDC line was cultured in 6C/Colon 1B media, which includes advanced DMEM/F-12 (Thermo Fisher Scientific, cat. 12634028), 10 mM HEPES (Thermo Fisher Scientific, cat. 15630080), 1X GlutaMAX supplement (Thermo Fisher Scientific, cat. 35050061), 0.1 mg/mL primocin (InvivoGen, cat. ant-pm-2), 10% defined fetal bovine serum, heat inactivated (HyClone Laboratories Inc., cat. SH30070.03HI), 50% L-WRN conditioned media (ATCC, cat. CRL-3276), 1.25 mM N-Acetyl-L-cysteine (Sigma-Aldrich, cat. A9165), 10 mM nicotinamide (Sigma-Aldrich, cat. N0636), 1X B-27 supplement (Thermo Fisher Scientific, cat. 17504044), 1X N-2 supplement (Thermo Fisher Scientific, cat. 17502048), 10 microM Y-27632 dihydrochloride (Tocris Bioscience, cat. 1254), and 50 ng/mL human EGF recombinant protein (Thermo Fisher Scientific, cat. PHG0311). The 485176-168-R4-J1-PDC line was cultured in Panc media, which includes all 6C/Colon 1B media components plus 100 ng/mL human FGF-10 (Thermo Fisher Scientific, cat. 100-26), 500 nM SB-431542 (Selleckchem, cat. S1067), and gastrin (Tocris, cat. 3006).
[…]

[1] = second compound 0.0316 µM, first compound 0.0316 µM
[2] = second compound 0.0316 µM, first compound 0.1 µM
[3] = second compound 0.0316 µM, first compound 0.316 µM
[4] = second compound 0.0316 µM, first compound 1 µM
[5] = second compound 0.0316 µM, first compound 3.16 µM
[6] = second compound 0.0316 µM, first compound 10 µM
[7] = second compound 0.1 µM, first compound 0.0316 µM
[8] = second compound 0.1 µM, first compound 0.1 µM
[9] = second compound 0.1 µM, first compound 0.316 µM
[10] = second compound 0.1 µM, first compound 1 µM
[11] = second compound 0.1 µM, first compound 3.16 µM
[12] = second compound 0.1 µM, first compound 10 µM
[13] = second compound 0.316 µM, first compound 0.0316 µM
[14] = second compound 0.316 µM, first compound 0.1 µM
[15] = second compound 0.316 µM, first compound 0.316 µM
[16] = second compound 0.316 µM, first compound 1 µM
[17] = second compound 0.316 µM, first compound 3.16 µM
[18] = second compound 0.316 µM, first compound 10 µM
[19] = second compound 1 µM, first compound 0.0316 µM
[20] = second compound 1 µM, first compound 0.1 µM
[21] = second compound 1 µM, first compound 0.316 µM
[22] = second compound 1 µM, first compound 1 µM
[23] = second compound 1 µM, first compound 3.16 µM
[24] = second compound 1 µM, first compound 10 µM
[25] = second compound 3.16 µM, first compound 0.0316 µM
[26] = second compound 3.16 µM, first compound 0.1 µM
[27] = second compound 3.16 µM, first compound 0.316 µM
[28] = second compound 3.16 µM, first compound 1 µM
[29] = second compound 3.16 µM, first compound 3.16 µM
[30] = second compound 3.16 µM, first compound 10 µM
[31] = second compound 10 µM, first compound 0.0316 µM
[32] = second compound 10 µM, first compound 0.1 µM
[33] = second compound 10 µM, first compound 0.316 µM
[34] = second compound 10 µM, first compound 1 µM
[35] = second compound 10 µM, first compound 3.16 µM
[36] = second compound 10 µM, first compound 10 µM
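Also: spheroids exposed to drugs for seven days.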
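For viability, T/C in this document: 100% = DMSO vehicle control viability.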

CC(C)n1c(=O)n(C)c2cnc3cc(F)c(-c4ccc(OCCCN5CCCCC5)nc4)cc3c21 + Cc1[nH]c2ccc(F)cc2c1-c1nc2c3cccnc3c3ncccc3c2[nH]1
pIC50 (second compound 0.0316 µM): < 5.00 | pIC50 (second compound 0.1 µM): < 5.00 | pIC50 (second compound 0.316 µM): < 5.00 | pIC50 (second compound 1 µM): < 5.00 | pIC50 (second compound 3.16 µM): 5.49 | pIC50 (second compound 10 µM): > 7.50 | viability, T/C [1]: 98.8% | viability, T/C [2]: 86.7% | viability, T/C [3]: 110% | viability, T/C [4]: 80.8% | viability, T/C [5]: 103% | viability, T/C [6]: 82.9% | viability, T/C [7]: 90.9% | viability, T/C [8]: 88.7% | viability, T/C [9]: 85% | viability, T/C [10]: 100% | viability, T/C [11]: 78.2% | viability, T/C [12]: 84.8% | viability, T/C [13]: 88.1% | viability, T/C [14]: 94.3% | viability, T/C [15]: 79% | viability, T/C [16]: 94.2% | viability, T/C [17]: 104% | viability, T/C [18]: 87.8% | viability, T/C [19]: 72.8% | viability, T/C [20]: 73.3% | viability, T/C [21]: 82.2% | viability, T/C [22]: 70.1% | viability, T/C [23]: 80.8% | viability, T/C [24]: 69.7% | viability, T/C [25]: 52% | viability, T/C [26]: 49.2% | viability, T/C [27]: 55% | viability, T/C [28]: 45.8% | viability, T/C [29]: 50.9% | viability, T/C [30]: 26.8% | viability, T/C [31]: 48.7% | viability, T/C [32]: 47% | viability, T/C [33]: 54.9% | viability, T/C [34]: 42% | viability, T/C [35]: 47% | viability, T/C [36]: 21.7%

CC1COCCN1c1cc(C2(O)CC3CCC(C2)O3)c2cnn(-c3ccn[nH]3)c2n1 (centres undefined) + Cc1[nH]c2ccc(F)cc2c1-c1nc2c3cccnc3c3ncccc3c2[nH]1
pIC50 (second compound 0.0316 µM): < 5.00 | pIC50 (second compound 0.1 µM): 5.51 | pIC50 (second compound 0.316 µM): 5.58 | pIC50 (second compound 1 µM): 6.18 | pIC50 (second compound 3.16 µM): 7.15 | pIC50 (second compound 10 µM): > 7.50 | viability, T/C [1]: 91% | viability, T/C [2]: 68% | viability, T/C [3]: 79% | viability, T/C [4]: 72.5% | viability, T/C [5]: 55.6% | viability, T/C [6]: 51% | viability, T/C [7]: 74.6% | viability, T/C [8]: 87% | viability, T/C [9]: 74.8% | viability, T/C [10]: 60.4% | viability, T/C [11]: 52.8% | viability, T/C [12]: 44.5% | viability, T/C [13]: 87.2% | viability, T/C [14]: 76.1% | viability, T/C [15]: 57.4% | viability, T/C [16]: 62.7% | viability, T/C [17]: 54% | viability, T/C [18]: 36% | viability, T/C [19]: 60.4% | viability, T/C [20]: 70% | viability, T/C [21]: 65.6% | viability, T/C [22]: 41.7% | viability, T/C [23]: 39.6% | viability, T/C [24]: 27.9% | viability, T/C [25]: 51.4% | viability, T/C [26]: 50.9% | viability, T/C [27]: 43.2% | viability, T/C [28]: 36% | viability, T/C [29]: 33.2% | viability, T/C [30]: 26.2% | viability, T/C [31]: 46.3% | viability, T/C [32]: 44.3% | viability, T/C [33]: 42.5% | viability, T/C [34]: 35.9% | viability, T/C [35]: 26.7% | viability, T/C [36]: 21.6%
